Our source for the MIC values is patent US5541178A, “Carbapenem antibiotic compounds” (Zeneca Limited, priority 1991, dated 1996).

Each structure is given as a SMILES string. ≈ marks a conversion by molar mass, not a printed value. Where a name gives a salt, the structure may show the parent alone. Read-outs that look alike come from different tables or passages of the source. Some results are limits rather than exact numbers.

Common to all, as to format: cell-based
One test relates to E. coli DCO. The experiment in a line: MIC by agar-dilution technique, Diagnostic Sensitivity Test. Conditions: Escherichia coli, inoculum 10^4 CFU/spot. An excerpt:
(§1) The pharmaceutically acceptable carbapenem compounds of the present invention are useful antibacterial agents having a broad spectrum of activity in vitro against standard laboratory microorganisms, both Gram-negative and Gram-positive, which are used to screen for activity against pathogenic bacteria. The antibacterial spectrum and potency of a particular compound may be determined in a standard test system. In particular the carbapenems of the present invention show good stability to beta-lactamases and in general particularly good pharmacokinetics, especially as regards half life. In general compounds show significant improvement over imipenem.
(§2) The following results were obtained for representative compounds on a standard in vitro test system using Diagnostic Sensitivity Test. The antibacterial activity is described in terms of the minimum inhibitory concentration (MIC) determined by the agar-dilution technique with an inoculum size of 10^4 CFU/spot.

In test [1] the test system is Enterobacter cloacae P99+. Described as above.
Description: as §1, §2

For the next test, the system named is P. morganii I + 001. The description is as above. The settings on record: Morganella morganii.
Description: as §1, §2

A further test has as its system D Morganii DR 062. Described as above.
Description: as §1, §2

Another test relates to B. fragilis AMP-S. The description is as above. Conditions: Bacteroides fragilis, inoculum 10^4 CFU/spot.
Description: as §1, §2

The next test deals with B. fragilis AMP-R. The test is described as above. Conditions: Bacteroides fragilis, inoculum 10^4 CFU/spot.
Description: as §1, §2

Another test has as its system S. aureus Oxford. Described as above. Conditions: Staphylococcus aureus, inoculum 10^4 CFU/spot.
Description: as §1, §2

Test [2] has as its system Enterobacter cloacae P99-. The experiment in a line: microbe, parasite or virus in culture.
Description: as §1, §2

Setting [3] is: P. morganii I + 001, agar-dilution, inoculum 10^4 CFU/spot, read-out: MIC.
The mark [4] stands for this setting: D Morganii DR 062, agar-dilution, inoculum 10^4 CFU/spot, read-out: MIC.

For the compound `C[C@@H](O)[C@H]1C(=O)N2C(C(=O)O)=C(S[C@@H]3CN[C@H](C(=O)Nc4ccc(C(=O)O)cc4O)C3)[C@H](C)[C@H]12` [Example 1, (1R,5S,6S,8R,2'S,4'S)-2-(2-(4-Carboxy-2-hydroxyphenylcarbamoyl)pyrrolidin-4-ylthio)-6-(1-hydroxyethyl)-1-methylcarbapenem-3-carboxylic acid], the MIC against E. coli DCO stood at 0.01 µg/mL (≈ 0.0203 µM); in test [1], 0.25 µg/mL (≈ 0.509 µM); in the test with P. morganii I + 001 (setting [3]) it was 0.02 µg/mL; in the test with D Morganii DR 062 (setting [4]), 0.02 µg/mL (≈ 0.0407 µM); with B. fragilis AMP-S it was 0.25 µg/mL (≈ 0.509 µM); in the test with B. fragilis AMP-R it was 0.5 µg/mL (≈ 1.02 µM). Further, the values for the MIC (against S. aureus Oxford; in test [2]) were 0.13 µg/mL (≈ 0.264 µM) and 0.01 µg/mL (≈ 0.0203 µM), respectively.
As for `C[C@@H](O)[C@H]1C(=O)N2C(C(=O)O)=C(S[C@@H]3CN[C@H](C(=O)Nc4cc(C(=O)O)ccc4O)C3)[C@H](C)[C@H]12` [Example 2, (1R,5S,6S,8R,2'S,4'S)-2-(2-(5-Carboxy-2-hydroxyphenylcarbamoyl)pyrrolidin-4-ylthio)-6-(1-hydroxyethyl)-1-methylcarbapenem-3-carboxylic acid], the MIC in the test with E. coli DCO turned out to be 0.03 µg/mL (≈ 0.061 µM); in test [1], 1 µg/mL (≈ 2.03 µM); with P. morganii I + 001 (setting [3]), 0.06 µg/mL; in the test with D Morganii DR 062 (setting [4]), 0.06 µg/mL (≈ 0.122 µM); in the test on B. fragilis AMP-S, 0.25 µg/mL (≈ 0.509 µM); in the test on S. aureus Oxford it was 0.13 µg/mL (≈ 0.264 µM). In test [2], this compound came in with an MIC of 0.01 µg/mL (≈ 0.0203 µM).
Consider `C[C@@H](O)[C@H]1C(=O)N2C(C(=O)O)=C(S[C@@H]3CN[C@H](C(=O)Nc4cccc(C(=O)O)c4C(=O)O)C3)[C@H](C)[C@H]12` [Example 4, (1R,5S,6S,8R,2'S,4'S)-2-(2-(2,3-Dicarboxyphenylcarbamoyl)pyrrolidin-4-ylthio)-6-(1-hydroxyethyl)-1-methylcarbapenem-3-carboxylic acid], for which the MIC against E. coli DCO was 0.02 µg/mL (≈ 0.0385 µM); in test [1], 1 µg/mL (≈ 1.92 µM); with P. morganii I + 001 it was 0.03 µg/mL (≈ 0.0577 µM); against D Morganii DR 062, 0.03 µg/mL (≈ 0.0577 µM); in the test with B. fragilis AMP-S it was 0.13 µg/mL (≈ 0.25 µM); in the test on B. fragilis AMP-R it was 0.5 µg/mL (≈ 0.962 µM). In addition, the results for the MIC (in the test with S. aureus Oxford; in test [2]) were 0.25 µg/mL (≈ 0.481 µM) and 0.01 µg/mL (≈ 0.0192 µM), respectively.
With `C[C@@H](O)[C@H]1C(=O)N2C(C(=O)O)=C(S[C@@H]3CN[C@H](C(=O)Nc4ccccc4C(=O)O)C3)[C@H](C)[C@H]12` [Example 5, (1R,5S,6S,8R,2'S,4'S)-2-(2-(2-Carboxyphenylcarbamoyl)pyrrolidin-4-ylthio)-6-(1-hydroxyethyl)-1-methylcarbapenem-3-carboxylic acid], the MIC is 0.03 µg/mL (≈ 0.0631 µM) in the test on E. coli DCO; 1 µg/mL (≈ 2.1 µM) in test [1]; 0.03 µg/mL (≈ 0.0631 µM) in the test on P. morganii I + 001; 0.03 µg/mL (≈ 0.0631 µM) against D Morganii DR 062; 0.25 µg/mL (≈ 0.526 µM) against B. fragilis AMP-S; 0.25 µg/mL (≈ 0.526 µM) against B. fragilis AMP-R. Besides, the MIC (with S. aureus Oxford; in test [2]) was 0.06 µg/mL (≈ 0.126 µM) throughout.
Regarding `C[C@@H](O)[C@H]1C(=O)N2C(C(=O)O)=C(S[C@@H]3CN[C@H](C(=O)Nc4ccc(C(=O)O)cc4C(=O)O)C3)[C@H](C)[C@H]12` [Example 13, (1R,5S,6S,8R,2'S,4'S)-2-(2-(2,4-Dicarboxyphenylcarbamoyl)pyrrolidin-4-ylthio)-6-(1-hydroxyethyl)-1-methylcarbapenem-3-carboxylic acid], the MIC in the test with E. coli DCO is 0.02 µg/mL (≈ 0.0385 µM); in test [1] it was 2 µg/mL (≈ 3.85 µM); with P. morganii I + 001 (setting [3]) it was 0.01 µg/mL; in the test on D Morganii DR 062 (setting [4]) it was 0.02 µg/mL (≈ 0.0385 µM); in the test with B. fragilis AMP-S, 0.13 µg/mL (≈ 0.25 µM); with B. fragilis AMP-R, 0.5 µg/mL (≈ 0.962 µM). For the same compound, the MIC was 0.25 µg/mL (≈ 0.481 µM) against S. aureus Oxford and 0.03 µg/mL (≈ 0.0577 µM) in test [2].
Consider `COc1ccc(NC(=O)[C@@H]2C[C@H](SC3=C(C(=O)O)N4C(=O)[C@H]([C@@H](C)O)[C@H]4[C@H]3C)CN2)c(C(=O)O)c1` [Example 31, (1R,5S,6S,8R,2'S,4'S)-2-(2-(2-Carboxy-4-methoxyphenylcarbamoylpyrrolidin-4-ylthiol)-6-(1-hydroxyethyl)-1-methylcarbapenem-3-carboxylic acid, dipotassium salt], for which the MIC in the test with E. coli DCO was 0.02 µg/mL; in test [1], 1 µg/mL; in the test on P. morganii I + 001, 0.03 µg/mL; in the test with D Morganii DR 062 (setting [4]) it was 0.06 µg/mL; against B. fragilis AMP-S, 0.25 µg/mL; with B. fragilis AMP-R, 0.25 µg/mL. Besides, the MIC against S. aureus Oxford stood at 0.13 µg/mL; in test [2], 0.03 µg/mL.
For `CO/N=C(\C(=O)N[C@@H]1C(=O)N2C(C(=O)O)=C(CSc3nc(=O)c(=O)[nH]n3C)CS[C@H]12)c1csc(N)n1` [ceftriaxone, reference compound], the MIC with E. coli DCO is 0.03 µg/mL (≈ 0.0541 µM); in test [1], 32 µg/mL (≈ 57.7 µM); with P. morganii I + 001 (setting [3]), 0.01 µg/mL; in the test on D Morganii DR 062 (setting [4]), 1 µg/mL (≈ 1.8 µM); in the test on B. fragilis AMP-S, 2 µg/mL (≈ 3.61 µM); with B. fragilis AMP-R it was greater than 128 µg/mL. In addition, the figures for the MIC (with S. aureus Oxford; in test [2]) were 2 µg/mL (≈ 3.61 µM) and 0.06 µg/mL (≈ 0.108 µM), respectively.
